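Values below derive from 48-hour exposures of cells grown in 96-well plates, with endpoints linearly interpolated between the two concentrations bracketing the appropriate inhibition level. At the TGI there is no net growth.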
How the values were obtained:
Experiment in all cases: NCI tumour cell line growth inhibition, 48 h
HT29 colon = test system: HT29 colon
MDA-MB-435 = test system: MDA-MB-435
A549 NSCLC = test system: A549 NSCLC
HOP-92 NSCLC = test system: HOP-92 NSCLC
OVCAR-3 ovarian = test system: OVCAR-3 ovarian
HOP-62 NSCLC = test system: HOP-62 NSCLC
CAKI-1 renal = test system: CAKI-1 renal
K-562 leukemia = test system: K-562 leukemia
MALME-3M melanoma = test system: MALME-3M melanoma
SNB-19 CNS = test system: SNB-19 CNS
HCC-2998 colon = test system: HCC-2998 colon

Structure (SMILES) | TGI (HT29 colon) | TGI (MDA-MB-435) | TGI (A549 NSCLC) | TGI (HOP-92 NSCLC) | TGI (OVCAR-3 ovarian) | TGI (HOP-62 NSCLC) | TGI (CAKI-1 renal) | TGI (K-562 leukemia) | TGI (MALME-3M melanoma) | TGI (SNB-19 CNS) | TGI (HCC-2998 colon)
C=CCCON(C(=O)OC(C)(C)C)C(C)(C)C | > 100 µM | > 100 µM | > 100 µM | > 100 µM | > 100 µM | > 100 µM | > 100 µM | > 100 µM | > 100 µM | > 100 µM | –
O=c1oc2ccccc2cc1-c1cc2ccccn2c1 | > 100 µM | > 100 µM | > 100 µM | > 100 µM | > 100 µM | > 100 µM | > 100 µM | > 100 µM | – | > 100 µM | –
Cc1ccc(/C=N/Nc2cc(C)c3cccc(C)c3n2)s1 | 13 µM | 37.2 µM | 26.3 µM | 59.4 µM | 22.2 µM | 25.7 µM | > 100 µM | – | 33.1 µM | > 100 µM | 22.7 µM
CCCC(=O)NC(NC1CCCCC1)(C(=O)OCC)C(F)(F)F (stereo unspecified) | > 100 µM | > 100 µM | > 100 µM | > 100 µM | > 100 µM | > 100 µM | – | > 100 µM | > 100 µM | > 100 µM | > 100 µM
CC(C)(C)OC(=O)N(CCCCN(CCCNC(=O)C(F)(F)F)C(=O)OC(C)(C)C)CCCNC(=O)C(F)(F)F | > 100 µM | > 100 µM | > 100 µM | > 100 µM | > 100 µM | > 100 µM | > 100 µM | > 100 µM | – | > 100 µM | > 100 µM
CCN(CC)Cc1ccc(C(=S)Nc2ccc(Cl)cc2)s1 | 12 µM | 22.7 µM | 25.4 µM | – | 37.7 µM | 32.1 µM | 26.2 µM | 18.9 µM | – | 31.6 µM | 26 µM
O=[N+]([O-])C[C@@]12O[C@]3(O)C4C5CC(C6C5C3C61)C42 (stereo partly specified) | > 100 µM | > 100 µM | > 100 µM | > 100 µM | > 100 µM | > 100 µM | > 100 µM | > 100 µM | > 100 µM | > 100 µM | –
N#Cc1n[nH]n(-c2ccc(Br)cc2)c1=O | > 100 µM | > 100 µM | > 100 µM | – | > 100 µM | > 100 µM | > 100 µM | > 100 µM | > 100 µM | > 100 µM | > 100 µM
O=C1COc2cccnc2N1CCCCO | – | > 100 µM | > 100 µM | > 100 µM | > 100 µM | > 100 µM | > 100 µM | – | – | > 100 µM | –
CN1CCc2c([nH]c3ccccc23)C1 | > 100 µM | > 100 µM | > 100 µM | – | > 100 µM | > 100 µM | > 100 µM | > 100 µM | 86.8 µM | > 100 µM | > 100 µM
CC(=O)OC(OC(C)=O)c1ccc2ccc3cccc4ccc1c2c34 | 38.3 µM | 37.9 µM | > 100 µM | 42.3 µM | > 100 µM | – | 32.5 µM | 96.2 µM | 54.7 µM | 98.7 µM | 24.5 µM
Cc1ccc(-c2c(C#N)c(-c3ccc(C)cc3)n(NS(=O)(=O)c3ccccc3)c(=O)c2C#N)cc1 | > 100 µM | > 100 µM | > 100 µM | > 100 µM | – | > 100 µM | > 100 µM | > 100 µM | > 100 µM | > 100 µM | > 100 µM
CC1(C)/C(=N\NC(N)=O)C2CCC1C2 (stereo unspecified) | > 100 µM | > 100 µM | > 100 µM | > 100 µM | > 100 µM | > 100 µM | > 100 µM | > 100 µM | > 100 µM | > 100 µM | –
O=[N+]([O-])c1ccc(CN(CCCl)OCCCl)cc1 | > 100 µM | > 100 µM | > 100 µM | – | > 100 µM | > 100 µM | > 100 µM | > 100 µM | > 100 µM | > 100 µM | > 100 µM
CO[C@@]12C[C@@H](C)C3=CCC(C)=C3CC1=C(C)C(=O)O2 | > 100 µM | > 100 µM | – | > 100 µM | > 100 µM | – | > 100 µM | > 100 µM | > 100 µM | > 100 µM | > 100 µM
CCOC(=O)Nc1[nH]cc(-c2ccccc2)c1C#N | > 100 µM | > 100 µM | > 100 µM | – | > 100 µM | > 100 µM | – | > 100 µM | > 100 µM | > 100 µM | –
CC1(C)[C@@H](Cn2ccc(=O)[nH]c2=O)CC[C@@]1(C)CO | – | > 100 µM | > 100 µM | > 100 µM | > 100 µM | > 100 µM | > 100 µM | > 100 µM | – | > 100 µM | > 100 µM
CCOC(=O)NC(Nc1ccc(C)cc1)(C(F)(F)F)C(F)(F)F | > 100 µM | > 100 µM | > 100 µM | > 100 µM | > 100 µM | > 100 µM | – | > 100 µM | > 100 µM | > 100 µM | > 100 µM
CC(=O)Nc1sc(Br)cc1S(=O)(=O)c1ccc(Cl)cc1 | 30.8 µM | > 100 µM | 90.5 µM | 59.5 µM | 47.2 µM | – | > 100 µM | 78.3 µM | > 100 µM | > 100 µM | 44.2 µM
Fc1ccc2c(c1)nc1n2C(c2c(Cl)cccc2Cl)SC1 (stereo unspecified) | 29.5 µM | 25 µM | 28.2 µM | 20 µM | 26 µM | 29.2 µM | 25 µM | – | 25.6 µM | 27.1 µM | 29.9 µM
CC(=O)Nc1ccc(N=Nc2c(O)c(S(=O)(=O)O)cc3cc(S(=O)(=O)O)ccc23)cc1 | > 100 µM | > 100 µM | > 100 µM | > 100 µM | > 100 µM | > 100 µM | > 100 µM | > 100 µM | > 100 µM | > 100 µM | –
